In assay [1] the test system is AhR-GUS and AhRV-GUS transformed tobacco plant (mouse AhR/AhRV, Arnt, XRE-GUS). The assay is described as follows: GUS activity in transformed tobacco plants (AhR-GUS / AhRV-GUS) treated with AhR-ligand. Format: in vivo, Nicotiana tabacum cv. Sumsun N N. The following applies: for enhancement of the GUS activity in the presence of AhR-ligands: medium with 25 μM 20-MC, 25 μM β-NF, 50 μM indigo, stem and leaf soluble protein, FIG. 10.
Source text: A AhR-ligand specific gene expression system for plants was constructed. It was constructed by introducing a AhR, Arnt and XRE to a plant. From a liver cDNA library prepared from C57BL/6 mouse, an AhR cDNA (Schmidt, J. V., et al, 1993) and an Arnt cDNA (Reisz-Porszasz, S., et al, 1994) were cloned. In order to constitutively express both cDNAs in a plant, there were constructed two kinds of plant expression plasmids pSKA2G and pSKAvAtG. The plasmids comprising a tandemly aligned XRE sequence, a transcription factor expression unit (i.e. the first transcription structure) inserted in an expression unit composed of a cauliflower mosaic virus 35S promoter (CaMV35S-P) and a nopaline synthase terminator (Nos-T), and a reporter unit composed of a reporter gene and Nos-T (structures are shown in FIG. 7). The PSKAvAtG contains a chimera AhR (AhRV) in which transcriptional activation domain of AhR is substituted with VP16 transcriptional activation domain (AhRV gene). Using Agrobacterium with each plasmid introduced therein, a tobacco plant (Nicotiana tabacum cv. Sumsun N N) was transformed by a leaf disc method.
The plants which had been introduced with each plant expression plasmid were selected two times by antibiotic kanamycin. Each genomic DNA was extracted from re-differentiated individuals after kanamycin selection, and genomic PCR analysis was performed using primers specific for each of AhR or AhRV, Arnt and GUS.
The plant transformed with either pSKA2G or pSKAvAtG is designated as AhR-GUS or AhRV-GUS plants, respectively. Axillary buds were removed from all transformed plants. […] Then the soluble protein fractions were extracted from stem and leaf parts of the grown buds, and the GUS activities of the fractions were measured. The medium were added with 0.01% Tween 20 and an AhR-ligand (20-MC) or a solvent DMSO solution to a final concentration of 0.1%. Similarly, a axillary bud was cultured for 2 weeks on an MS medium in the presence of various concentrations (8 grades) of AhR-ligand 20 MC. The AhR-ligand dose dependent expression of the reporter was analyzed. In addition, similarly, a axillary bud was cultured for 2 weeks on an MS medium containing 25 μM 20-MC, and tissue-specific expression of a reporter in a plant was analyzed using a GUS staining method. That is, each tissue of a plant was impregnation-treated in a X-Gluc solution (0.1M sodium phosphate buffer, pH 7.0, 1.9 mM X-glucuronide, 0.5 mM K3Fe(CN)6, 0.5 mM K4Fe(CN)6, 0.3% (v/v) Triton X-100, 20% methanol) under reduced pressure, then incubated at 37° C. overnight, and 70% ethanol was added to stop the reaction. Thereafter, decoloration was performed in 70% ethanol, and the tissue was observed under an optical microscope or stereomicroscope.

In assay [2] the test system is AhR. The note with it: cultured mammal cell; cited from earlier work.
In assay [3] the test system is LexA operator promoter-LacZ reporter unit in yeast L40 strain expressing XDV/XVD (mouse AhR-ligand binding control region). Put plainly: Yeast reporter assay system for XDV/XVD (LacZ activity). Format: cell-based. The following applies: yeast introduced with XDV/XVD, FIG. 6. On the technique in general: In a reporter assay the amount or activity of a reporter protein is the signal.
Procedure: Yeasts introduced with various XDV/XVD expression plasmids were pre-cultured overnight in a liquid selective medium containing glucose as a carbon source, cultured for 14 to 16 hours in a liquid selective medium containing an AhR-ligand and galactose(as a carbon source), and the LacZ activity was measured.
By using a reporter gene assay system using a yeast expression system, assessment of performance of XDV/XVD was performed.
An yeast L40 strain having a reporter unit composed of a LexA operator promoter and a β-galactosidase gene (LacZ) in a chromosome [(MATa his3Δ200 trp1-901 leu2-3112 ade2 LYS2:: (41exAop-HIS3)URA3:: (81exAop-lacZ)GAL4) (Invitrogen, Netherland)) was transformed, and assessed by the LacZ activity dependent on the expression of XDV/XVD and ligand treatment as an index. […]
Various AhR-ligands (dioxins) were dissolved in DMSO (a final concentration of DMSO in a medium was adjusted at 0.1%). […] An absorbance at 415 nm of the supernatant was measured. A LacZ unit was calculated by the following calculation equation:
LacZ unit=absorbance at 415 nm/[absorbance at 600 nm of a diluted cultured yeast solution in which 200 μL of cultured yeast solution was diluted up to 1 mL]×reaction time (min)]×1000

These results are taken from patent publication US20040043394A1, “Gene expression element specific for Ah receptor ligands and heterologous gene expression systems dependent on the element” (priority 2002, published 2004).

As to `Cc1ccc2cc3c(ccc4ccccc43)c3c2c1CC3` [20-MC, 20-methylcholanthrene], the “GUS staining of tissues (X-Gluc)” value in assay [1] (2 weeks on MS medium containing 25 μM 20-MC, leaf and stem, FIG. 12 B) is “remarkable expression of a GUS reporter gene”. The “20-MC concentration in a medium that can be detected by the transformed plant” value in assay [1] (axillary bud cultured 2 weeks on MS medium, 8 grades of 20-MC) is 5 nM. In addition, in assay [1] (line 4 and line 21 of the AhRV-GUS plant, stronger than GUS under CaMV 35S-P, FIG. 9), the “GUS activity dependent on AhR-ligand treatment, line 4 and line 21 of AhRV-GUS plant” value is “very strong enhancement of the GUS activity”. Further, in assay [1], the “enhancement of the GUS activity in the presence of AhR-ligands” value is “remarkable”.
As to `Clc1cc2c(cc1Cl)Oc1cc(Cl)c(Cl)cc1O2` [TCDD, 2,3,7,8-TCDD], in assay [2], the TCDD concentration detectable is recorded as 0.01 ppb.
As to `O=c1cc(-c2ccccc2)oc2ccc3ccccc3c12` [β-NF, β-naphthoflovone], in assay [3], the “LacZ activity on AhR-ligand treatment, in words” value was “enhancement of the LacZ activity was recognized”. For the same compound, the “enhancement of the GUS activity in the presence of AhR-ligands” value in assay [1] is recorded as “remarkable”.
